Source: US20070128217A1 (priority 2003, published 2007)

What was measured:
[1] = tested on: antibodies in sera from SARS patients (sera 1a, 1b, 2, 6, 37, 62, London, SARS-yellow, SARS-green); assay type: binding, human; design: Binding of serum 6 to linear peptides of protein X1 of SARS-CoV Urbani / Binding of serum 37 to linear peptides of protein X1 of SARS-CoV Urbani / Binding of serum 6 to looped/cyclic peptide (PEPSCAN-ELISA) / Binding of serum 37 to looped/cyclic peptide (PEPSCAN-ELISA) / Binding of serum 37 to looped/cyclic peptides of protein X1 of SARS-CoV Urbani / Binding of serum 6 to linear peptides of protein X2 / Binding of serum 37 to linear peptides of protein X2 / Binding of serum 37 to looped/cyclic peptides of protein X2 of SARS-CoV Urbani / Binding of serum 6 to linear peptides of protein M of SARS-CoV Urbani / Binding of serum 37 to linear peptides of protein M of SARS-CoV Urbani / Binding of serum 6 to looped/cyclic peptides of protein M of SARS-CoV Urbani / Binding of serum 37 to looped/cyclic peptides of protein M of SARS-CoV Urbani / Binding of serum 6 to linear peptides of protein X3 of SARS-CoV Urbani / Binding of serum 37 to linear peptides of protein X3 of SARS-CoV Urbani / Binding of serum 37 to looped/cyclic peptides of protein X3 of SARS-CoV Urbani / Binding of serum 6 to linear peptides of protein X4 of SARS-CoV Urbani / Binding of serum 37 to linear peptides of protein X4 of SARS-CoV Urbani / Binding of serum 37 to looped/cyclic peptides of protein X4 of SARS-CoV Urbani / Binding of serum 6 to linear peptides of protein X5 of SARS-CoV Urbani / Binding of serum 37 to linear peptides of protein X5 of SARS-CoV Urbani / Binding of serum 37 to looped/cyclic peptides of protein X5 of SARS-CoV Urbani / Binding of serum 6 to linear peptides of protein N of SARS-CoV Urbani / Binding of serum 37 to linear peptides of protein N of SARS-CoV Urbani / Binding of serum 6 to linear peptide (PEPSCAN-ELISA) / Binding of serum 1a to looped/cyclic peptides of protein N of SARS-CoV Urbani / Binding of serum 1b to looped/cyclic peptides of protein N of SARS-CoV Urbani / Binding of serum 2 to looped/cyclic peptides of protein N of SARS-CoV Urbani / Binding of serum 6 to looped/cyclic peptides of protein N of SARS-CoV Urbani / Binding of serum 37 to looped/cyclic peptides of protein N of SARS-CoV Urbani / Binding of serum 62 to looped/cyclic peptides of protein N of SARS-CoV Urbani / Binding of serum London to looped/cyclic peptides of protein N of SARS-CoV Urbani / Binding of serum SARS-green to looped/cyclic peptides of protein N of SARS-CoV Urbani: unit not given here
[2] = tested on: control sera (pooled serum of ten healthy LUMC hospital workers; commercial negative donor pooled serum from the Dutch bloodbank); assay type: binding, human; design: Binding of Control serum LUMC to linear peptides / Binding of Control serum Blood-bank to linear peptides / Binding of Control serum LUMC to looped peptides / Binding of Control Serum Blood-Bank to Looped peptides / Binding of Control serum LUMC to linear peptides of the protein M of SARS-CoV Urbani / Binding of Control serum Blood-bank to linear peptides of the protein M of SARS-CoV Urbani / Binding of Control serum LUMC to looped peptides of the protein M of SARS-CoV Urbani / Binding of Control Serum Blood-Bank to Looped peptides of the protein M of SARS-CoV Urbani: unit not given here
[3] = tested on: rabbit serum obtained by immunizing a rabbit with the SARS-CoV strain Frankfurt 1; assay type: binding; design: Binding of a rabbit serum to linear peptides / Binding of a rabbit serum to looped peptides / Rabbit serum linear peptides / Rabbit serum looped peptides / Binding of a rabbit serum to linear peptides of protein N of SARS-CoV Urbani (Rabbit serum linear peptides) / Binding of a rabbit serum to looped/cyclic peptides of protein N of SARS-CoV Urbani (Rabbit serum looped peptides): unit not given here

KEPCPSGTYEGNSPF
0.7: Binding of serum 1a to linear peptides of protein X4 of SARS-CoV Urbani [1] | Binding of serum 37 to linear peptides of protein X4 of SARS-CoV Urbani [1] | Binding of serum 37 to looped/cyclic peptides of protein X4 of SARS-CoV Urbani [1] | Binding of serum SARS-yellow to linear peptides of protein X4 of SARS-CoV Urbani [1]
0.5: Binding of Control Serum Blood-Bank to Looped peptides [2]
0.3: Binding of serum London to looped/cyclic peptides of protein X4 of SARS-CoV Urbani [1] | Binding of serum SARS-yellow to looped/cyclic peptides of protein X4 of SARS-CoV Urbani [1] | Rabbit serum looped peptides [3]
0.8: Binding of serum 1a to looped/cyclic peptides of protein X4 of SARS-CoV Urbani [1] | Binding of serum 62 to linear peptides of protein X4 of SARS-CoV Urbani [1] | Binding of serum London to linear peptides of protein X4 of SARS-CoV Urbani [1] | Binding of Control serum LUMC to looped peptides [2]
0.6: Binding of serum 1b to linear peptides of protein X4 of SARS-CoV Urbani [1] | Binding of serum 1b to looped/cyclic peptides of protein X4 of SARS-CoV Urbani [1] | Binding of serum 2 to looped/cyclic peptides of protein X4 of SARS-CoV Urbani [1] | Binding of serum 6 to looped/cyclic peptides of protein X4 of SARS-CoV Urbani [1] | Binding of serum 62 to looped/cyclic peptides of protein X4 of SARS-CoV Urbani [1] | Binding of serum SARS-green to linear peptides of protein X4 of SARS-CoV Urbani [1] | Binding of Control serum Blood-bank to linear peptides [2] | Binding of Control serum LUMC to linear peptides [2]
0.4: Binding of serum 2 to linear peptides of protein X4 of SARS-CoV Urbani [1] | Binding of serum 6 to linear peptides of protein X4 of SARS-CoV Urbani [1] | Binding of serum SARS-green to looped/cyclic peptides of protein X4 of SARS-CoV Urbani [1] | Rabbit serum linear peptides [3]

ENATFFIFNKLVKDP
0.6: Binding of serum 1a to linear peptides of protein X1 of SARS-CoV Urbani [1]
0.0: Binding of serum SARS-green to linear peptides of protein X1 of SARS-CoV Urbani [1]
0.4: Binding of serum 1a to looped/cyclic peptides of protein X1 of SARS-CoV Urbani [1] | Binding of serum 1b to linear peptides of protein X1 of SARS-CoV Urbani [1] | Binding of serum 6 to linear peptides of protein X1 of SARS-CoV Urbani [1] | Binding of serum 6 to looped/cyclic peptides of protein X1 of SARS-CoV Urbani [1] | Binding of serum 37 to looped/cyclic peptides of protein X1 of SARS-CoV Urbani [1] | Binding of serum 62 to linear peptides of protein X1 of SARS-CoV Urbani [1] | Binding of Control serum LUMC to linear peptides [2] | Binding of Control serum LUMC to looped peptides [2]
0.3: Binding of serum 1b to looped/cyclic peptides of protein X1 of SARS-CoV Urbani [1]
0.2: Binding of serum London to linear peptides of protein X1 of SARS-CoV Urbani [1] | Binding of serum London to looped/cyclic peptides of protein X1 of SARS-CoV Urbani [1] | Binding of serum SARS-green to looped/cyclic peptides of protein X1 of SARS-CoV Urbani [1] | Binding of serum SARS-yellow to linear peptides of protein X1 of SARS-CoV Urbani [1] | Binding of serum SARS-yellow to looped/cyclic peptides of protein X1 of SARS-CoV Urbani [1]
0.5: Binding of serum 2 to linear peptides of protein X1 of SARS-CoV Urbani [1] | Binding of serum 2 to looped/cyclic peptides of protein X1 of SARS-CoV Urbani [1] | Binding of serum 37 to linear peptides of protein X1 of SARS-CoV Urbani [1] | Binding of serum 62 to looped/cyclic peptides of protein X1 of SARS-CoV Urbani [1] | Binding of Control serum Blood-bank to linear peptides [2] | Binding of a rabbit serum to looped peptides [3]
0.1: Binding of a rabbit serum to linear peptides [3]
0.7: Binding of Control Serum Blood-Bank to Looped peptides [2]

LFIRQEEVQQELYSP
0.3: Binding of serum London to looped/cyclic peptides of protein X4 of SARS-CoV Urbani [1]
0.7: Binding of serum 1a to looped/cyclic peptides of protein X4 of SARS-CoV Urbani [1] | Binding of serum 1b to linear peptides of protein X4 of SARS-CoV Urbani [1] | Binding of serum 2 to looped/cyclic peptides of protein X4 of SARS-CoV Urbani [1] | Binding of serum 37 to linear peptides of protein X4 of SARS-CoV Urbani [1] | Binding of serum 37 to looped/cyclic peptides of protein X4 of SARS-CoV Urbani [1] | Binding of serum SARS-yellow to linear peptides of protein X4 of SARS-CoV Urbani [1] | Binding of serum SARS-yellow to looped/cyclic peptides of protein X4 of SARS-CoV Urbani [1] | Binding of Control serum Blood-bank to linear peptides [2] | Binding of Control serum LUMC to linear peptides [2]
0.6: Binding of serum 2 to linear peptides of protein X4 of SARS-CoV Urbani [1] | Binding of serum SARS-green to linear peptides of protein X4 of SARS-CoV Urbani [1]
0.4: Rabbit serum linear peptides [3] | Rabbit serum looped peptides [3]
0.5: Binding of serum 1b to looped/cyclic peptides of protein X4 of SARS-CoV Urbani [1] | Binding of serum 6 to linear peptides of protein X4 of SARS-CoV Urbani [1]
0.8: Binding of serum 1a to linear peptides of protein X4 of SARS-CoV Urbani [1] | Binding of serum 62 to linear peptides of protein X4 of SARS-CoV Urbani [1] | Binding of serum 62 to looped/cyclic peptides of protein X4 of SARS-CoV Urbani [1] | Binding of serum London to linear peptides of protein X4 of SARS-CoV Urbani [1] | Binding of serum SARS-green to looped/cyclic peptides of protein X4 of SARS-CoV Urbani [1] | Binding of Control Serum Blood-Bank to Looped peptides [2] | Binding of Control serum LUMC to looped peptides [2]
